Assay results: patent publication US10568819B2, “Skin enhancing compositions and methods” (Sytheon Limited, priority 2016, dated 2020)
Like-named read-outs stand apart in the source and are kept apart here.

Assays:
Keratinocyte = experiment: UVA-induced delayed formation of CPDs (dCPDs) in keratinocytes; format: cell-based; conditions: 25 μg/ml
Description: (§1) A second study was carried out, similar to the first, except that this time the analysis was in assessing the efficacy, if any, of the presently taught aryl alkanones in reducing UVA-induced delayed formation of CPDs (dCPDs).

Fibroblasts [1] = experiment: UVA- and UVB-induced formation of immediate CPDs (iCPDs) in fibroblasts; format: cell-based; conditions: 25 μg/ml
Description: (§2) Given the significance of CPDs in skin aging and damage, a study was undertaken to determine whether compounds of the present invention have the ability to directly protect the genome of skin cells from the mutagenic effect of UV light as evidenced by CPDs inhibition. The study was conducted in accordance with the method described by Mitchell et. al. [Mitchell, D L, The relative cytotoxicity of (6-4) photoproducts and cyclobutane dimers in mammalian cells. Photochem Photobiol, 48(1):51-57, 1988)] pursuant to which UVA- and UVB-induced formation of immediate CPDs (iCPDs) were determined.

Keratinocytes = experiment: UVA- and UVB-induced formation of immediate CPDs (iCPDs) in keratinocytes; format: cell-based
Description: as §2

[2] = Antioxidant power / quenching: singlet oxygen
Description: Separately, a study of the singlet oxygen quenching ability of Compound 1 and Compound 7 were evaluated.

[3] = test system: ϕX-174 RF bacteriophage supercoiled DNA; experiment: UVA/AGE-albumin-induced DNA strand breaks (QPES); format: biochemical
Description: A study was undertaken to determine whether the aryl alkanones of the present invention have the ability to reduce photooxidative stress by physical Quencher of Photo-excited States (QPES) mechanism under UV light employing the method of Wondarak et al, (J Invest Dermatol, 119:489, 2002). Briefly, 100 ng (experiment 1) or 200 ng (experiment 2) of ϕX-174 RF bacteriophage supercoiled DNA was irradiated in the presence of […] of filtered glycated bovine serum albumin (20 mg/ml BSA reacted for 3 weeks with 180 mg/ml glucose at 37° C.) in a final volume of 100 μl. The irradiation was performed in a 96 well plate without lid, with UVA lamp (Ultra-lum UVA-28T at 6.4 mW/cm^2) for 2 h, delivering a total energy of […]. Following irradiation 10 μl of the reaction mixture was mixed with 2 μl of loading buffer, resolved in 1% agarose gel (at 90V for 20 min) and stained with ethidium bromide ([…]). The intact (supercoiled) lower (faster-migrating) band and the UVA-damaged (uncoiled) higher (slower-migrating) band were visualized using Hoefer transilluminator. Photographs of the gels were then processed using NIH ImageJ and ratio of unwound (damaged) to supercoiled (intact) bands was calculated and used to assess the protective activity of test materials.

Fibroblasts [4] = experiment: UVA-induced delayed formation of CPDs (dCPDs) in fibroblasts; format: cell-based; conditions: 25 μg/ml
Description: as §1

NOX [5] = conditions: UVA; Fibroblasts; 50 μg/ml
NOX [6] = conditions: UVA; Keratinocytes; 50 μg/ml
iNOS = iNOS (Homo sapiens, UniProt P35228); experiment: Reduction of iNOS activity; format: biochemical; conditions: read-out: Reduction of iNOS activity, Amount used in μM (IC50) values)
Source text: Accordingly, an investigation was undertaken to assess the efficacy of compounds according to the present teaching as compared to compounds that are closely structurally related thereto in inhibiting NO product.

[7] = Antioxidant power: peroxynitrite
[8] = Antioxidant power: super oxide anion
[9] = Antioxidant power: peroxyl radicals
[10] = Antioxidant power: hydroxyl radicals
[11] = Lipid peroxidation, squalene substrate; format: biochemical; conditions: Squalene used as a substrate

Sequence of iNOS (P35228 whole entry, species assumed): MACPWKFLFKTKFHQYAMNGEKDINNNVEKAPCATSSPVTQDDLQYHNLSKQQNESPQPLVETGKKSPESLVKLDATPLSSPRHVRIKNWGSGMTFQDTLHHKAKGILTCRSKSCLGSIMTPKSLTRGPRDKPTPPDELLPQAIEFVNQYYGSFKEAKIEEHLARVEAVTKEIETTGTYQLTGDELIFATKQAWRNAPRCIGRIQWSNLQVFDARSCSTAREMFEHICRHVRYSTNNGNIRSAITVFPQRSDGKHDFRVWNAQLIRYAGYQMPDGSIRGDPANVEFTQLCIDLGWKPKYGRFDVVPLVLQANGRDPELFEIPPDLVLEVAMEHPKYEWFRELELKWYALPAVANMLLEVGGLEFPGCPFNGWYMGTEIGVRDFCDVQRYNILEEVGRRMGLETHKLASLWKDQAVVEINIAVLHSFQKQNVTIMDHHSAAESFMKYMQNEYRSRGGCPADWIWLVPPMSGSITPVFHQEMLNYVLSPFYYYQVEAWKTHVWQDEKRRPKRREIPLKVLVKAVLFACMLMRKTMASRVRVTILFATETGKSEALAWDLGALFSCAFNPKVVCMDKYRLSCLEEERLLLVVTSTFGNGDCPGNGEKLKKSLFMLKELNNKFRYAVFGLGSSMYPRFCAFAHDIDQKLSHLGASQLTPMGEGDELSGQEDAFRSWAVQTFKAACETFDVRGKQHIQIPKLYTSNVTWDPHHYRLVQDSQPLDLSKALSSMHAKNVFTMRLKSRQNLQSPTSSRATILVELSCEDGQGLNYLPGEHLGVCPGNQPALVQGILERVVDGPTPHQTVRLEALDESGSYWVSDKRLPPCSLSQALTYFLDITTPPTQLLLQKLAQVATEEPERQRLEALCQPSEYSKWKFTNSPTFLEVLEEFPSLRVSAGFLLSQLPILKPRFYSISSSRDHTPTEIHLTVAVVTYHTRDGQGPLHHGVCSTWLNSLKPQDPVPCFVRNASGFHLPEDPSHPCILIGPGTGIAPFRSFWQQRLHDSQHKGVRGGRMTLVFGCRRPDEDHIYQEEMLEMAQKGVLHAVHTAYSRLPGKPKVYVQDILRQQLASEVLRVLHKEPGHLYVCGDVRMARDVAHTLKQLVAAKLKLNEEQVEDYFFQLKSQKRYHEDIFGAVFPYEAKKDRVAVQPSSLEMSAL

CCOC(=O)C(Cc1ccc(O)c(OC)c1)C(C)=O (centres unmarked) [Compound 2]
UVA/% Reduction in dCPDs vs. control, 0 hr. (Reduction in iCPDs) (Keratinocyte; 0 hr.): ^+0 hr.: ↓26%
UVA/% Reduction in dCPDs vs. control, 1 hr. (Keratinocyte; 1 hr.): 1 hr.: ↓13%
UVA/% Reduction in dCPDs vs. control, 2 hr. (Keratinocyte; 2 hr.): 2 hr.: ~0%
UVB/% Reduction iCPDs vs. Control (Fibroblasts [1]): 44%
UVA/% Reduction in iCPDs vs. Control (Keratinocytes; 25 μg/ml): 26%
UVB/% Reduction iCPDs vs. Control (Keratinocytes; 25 μg/ml): 25%

COc1cc(CC(C(C)=O)C(C)=O)cc(OC)c1OC [Compound 7]
Antioxidant Power, Singlet oxygen [2]: 6,359+ μmole Trolox Equivalent/gram
Singlet oxygen quenching ([2]; ±10% error): 6,359 μMole Trolox Equivalent/g
% DNA strand breaks ([3]; 0.03 μg/ml): 33%
% DNA strand protection ([3]; 0.03 μg/ml): 67%
% DNA strand breaks ([3]; 0.1 μg/ml): 15%
% DNA strand protection ([3]; 0.1 μg/ml): 85%

CCOC(=O)C(Cc1cc(OC)c(OC)c(OC)c1)C(C)=O (centres unmarked) [Compound 8]
UVA/% Reduction in dCPDs vs. control, 0 hr. (Reduction in iCPDs) (Fibroblasts [4]; 0 hr., product incubated for 24 hrs. plus UVA irradiation): ^+0 hr.: No effect
UVA/% Reduction in dCPDs vs. control, 1 hr. (Fibroblasts [4]; 1 hr., product incubated for 24 hrs. plus UVA irradiation): 1 hr.: ↓35%
UVA/% Reduction in dCPDs vs. control, 2 hr. (Fibroblasts [4]; 2 hr., product incubated for 24 hrs. plus UVA irradiation): 2 hr.: ↓52%
UVA/% Reduction in dCPDs vs. control, 4 hr. (Fibroblasts [4]; 4 hr., product incubated for 24 hrs. plus UVA irradiation): 4 hr.: ↓32%
reduction of NOX activity (NOX [5]): −14%
reduction of NOX activity (NOX [6]): −17%
UVA/% Reduction in iCPDs vs. Control (Keratinocytes; 50 μg/ml): 42%^+

COc1cc(CCC(C)=O)ccc1O [Zingerone, reference compound]
IC50 (iNOS): 364 µM
UVA/% Reduction in dCPDs vs. control (Keratinocyte; time not given): No effect
UVA/% Reduction in dCPDs vs. control (Fibroblasts [4]; time not given): No effect
UVA/% Reduction in iCPDs vs. Control (Fibroblasts [1]; UVA): No effect
UVB/% Reduction iCPDs vs. Control (Fibroblasts [1]): No effect
UVA/% Reduction in iCPDs vs. Control (Keratinocytes; 25 μg/ml): No effect
UVB/% Reduction iCPDs vs. Control (Keratinocytes; 25 μg/ml): No effect

Tocopherol
Antioxidant Power, Singlet oxygen [2]: 1,110 μmole Trolox Equivalent/gram
Antioxidant Power, Peroxynitrite [7]: 1 μmole Trolox Equivalent/gram
Antioxidant Power, Super oxide anion [8]: Not detected
Antioxidant Power, Peroxyl radicals [9]: 813 μmole Trolox Equivalent/gram
Antioxidant Power, Hydroxyl radicals [10]: Not detected
Lipid peroxidation IC50 value [11]: 30 µg/mL
